Patent US7553864B2, “Compounds for the treatment of inflammatory disorders and microbial diseases” (Schering Corporation, priority 2005, dated 2009)
Read-outs that look alike come from different tables or passages of the source.

How the values were obtained:
ADMP (ADAMTS-4-5) = target: T1, ADMP (ADAMTS-4-5) (Homo sapiens, UniProt O75173); assay: ADMP activity assay (procedures of WO00/05256); format: biochemical
T1 construct: purchased Calbiochem PF113
T1 sequence (O75173 213-837): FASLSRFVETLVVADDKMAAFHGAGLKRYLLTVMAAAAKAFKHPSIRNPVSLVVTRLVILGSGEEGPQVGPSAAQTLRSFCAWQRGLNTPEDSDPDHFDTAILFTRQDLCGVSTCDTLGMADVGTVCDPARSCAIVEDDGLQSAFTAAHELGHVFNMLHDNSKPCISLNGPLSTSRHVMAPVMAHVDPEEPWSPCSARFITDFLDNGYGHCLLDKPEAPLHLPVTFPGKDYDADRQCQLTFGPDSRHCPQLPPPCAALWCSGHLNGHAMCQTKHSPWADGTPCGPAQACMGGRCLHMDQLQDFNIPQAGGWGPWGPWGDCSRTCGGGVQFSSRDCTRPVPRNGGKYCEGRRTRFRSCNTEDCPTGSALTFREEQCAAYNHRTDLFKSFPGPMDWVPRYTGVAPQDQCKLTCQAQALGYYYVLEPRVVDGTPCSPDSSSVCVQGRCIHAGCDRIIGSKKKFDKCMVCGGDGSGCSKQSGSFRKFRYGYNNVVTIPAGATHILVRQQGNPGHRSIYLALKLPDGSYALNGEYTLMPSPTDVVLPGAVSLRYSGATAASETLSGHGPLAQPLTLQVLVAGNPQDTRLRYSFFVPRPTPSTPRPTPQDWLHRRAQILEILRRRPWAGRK
Source text: The procedures of International Patent Publication WO00/05256 (published Feb. 3, 2000) were followed for detection of ADMP Activity and for measuring the IC50 of the compounds of the present invention. This was indicative of activity against a desintgrin and metallopropeinase thrombo spondin 4 and 5 (ADAMTS-4-5).
The enzyme was purchased commercially from Calbiochem (Cat# PF113) and the peptide substrate described in the patent was custom-ordered from AnaSpec.

LpxC enzyme = LpxC enzyme assay (RapidFire high-throughput mass spectrometry); format: biochemical
Procedure, shortened: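 0.2 nM enzyme with 1.0 μM UDP-3-O-(R-3-hydroxymyristoyl)-N-acetylglucosamine in 25 mM HEPES pH 7.3, 150 mM NaCl, 2.0 mM DTT, 0.01% BSA, 2% DMSO; 60 min at room temperature, quenched with HCl. Substrate and product quantified by RapidFire mass spectrometry; percent conversion gives percent inhibition versus DMSO control.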

[1] = read-out: IC50 rating (ADMP inhibitory activity)
[2] = concentration 0.10 (unit not given)
[3] = concentration 0.20 (unit not given)
[4] = concentration 0.39 (unit not given)
[5] = concentration 0.78 (unit not given)
[6] = concentration 1.56 (unit not given)
[7] = concentration 3.13 (unit not given)
[8] = concentration 6.25 (unit not given)
[9] = concentration 12.50 (unit not given)
[10] = concentration 25 (unit not given)
[11] = concentration 50 (unit not given)

Row | Compound | IC50 (ADMP (ADAMTS-4-5); [1]) [nM] | LpxC enzyme assay rating (% inhibition at indicated concentrations) (LpxC enzyme; [2]) | LpxC enzyme assay rating (% inhibition at indicated concentrations) (LpxC enzyme; [3]) | LpxC enzyme assay rating (% inhibition at indicated concentrations) (LpxC enzyme; [4]) | LpxC enzyme assay rating (% inhibition at indicated concentrations) (LpxC enzyme; [5]) | LpxC enzyme assay rating (% inhibition at indicated concentrations) (LpxC enzyme; [6]) | LpxC enzyme assay rating (% inhibition at indicated concentrations) (LpxC enzyme; [7]) | LpxC enzyme assay rating (% inhibition at indicated concentrations) (LpxC enzyme; [8]) | LpxC enzyme assay rating (% inhibition at indicated concentrations) (LpxC enzyme; [9]) | LpxC enzyme assay rating (% inhibition at indicated concentrations) (LpxC enzyme; [10]) | LpxC enzyme assay rating (% inhibition at indicated concentrations) (LpxC enzyme; [11]) | IC50 (ADMP (ADAMTS-4-5)) [nM]
1 | C[C@H](NC(=O)C(O)C(O)C(=O)N1CCc2ccccc2C1)c1ccc(I)cc1 (stereo in doubt) [Compound 210] | 250 to 1000 |  |  |  |  |  |  |  |  |  |  | 
2 | O=C(Nc1ccc(-n2cccn2)cc1)[C@H](O)[C@@H](O)C(=O)N1CCCC1 [Compound 75] |  | C (less than 10% inhibition) | C (less than 10% inhibition) | C (less than 10% inhibition) | B (10-30% inhibition) | C (less than 10% inhibition) | B (10-30% inhibition) | B (10-30% inhibition) | C (less than 10% inhibition) | C (less than 10% inhibition) | B (10-30% inhibition) | 
3 | O=C(Nc1ccc(-c2cc[nH]n2)cc1)[C@H](O)[C@@H](O)C(=O)N1CCCC1 [Compound 76] |  | C (less than 10% inhibition) | C (less than 10% inhibition) | C (less than 10% inhibition) | C (less than 10% inhibition) | B (10-30% inhibition) | C (less than 10% inhibition) | B (10-30% inhibition) | C (less than 10% inhibition) | C (less than 10% inhibition) | C (less than 10% inhibition) | 
4 | C[C@H](O)[C@@H](NC(=O)[C@H](O)[C@@H](O)C(=O)N(C)C)C(=O)Nc1ccc(C#Cc2ccccc2)cc1 [Compound 77] |  | C (less than 10% inhibition) | C (less than 10% inhibition) | C (less than 10% inhibition) | C (less than 10% inhibition) | C (less than 10% inhibition) | C (less than 10% inhibition) | C (less than 10% inhibition) | B (10-30% inhibition) | A (greater than 30% inhibition) |  | 
5 | C[C@@H](O)[C@H](NC(=O)[C@H](O)[C@@H](O)C(=O)N(C)C)C(=O)Nc1ccc(C#Cc2ccccc2)cc1 [Compound 78] |  | C (less than 10% inhibition) | C (less than 10% inhibition) | B (10-30% inhibition) | C (less than 10% inhibition) | C (less than 10% inhibition) | B (10-30% inhibition) | B (10-30% inhibition) | B (10-30% inhibition) | A (greater than 30% inhibition) |  | 
6 | CN(C)C(=O)[C@H](O)[C@@H](O)C(=O)Nc1ccccc1C#Cc1ccccc1 [Compound 80] |  | C (less than 10% inhibition) | C (less than 10% inhibition) | C (less than 10% inhibition) | C (less than 10% inhibition) | C (less than 10% inhibition) | C (less than 10% inhibition) | C (less than 10% inhibition) | B (10-30% inhibition) | C (less than 10% inhibition) |  | 
7 | CN(C)C(=O)[C@H](O)[C@@H](O)C(=O)Nc1cccc(C#Cc2ccccc2)c1 [Compound 81] |  | C (less than 10% inhibition) | C (less than 10% inhibition) | C (less than 10% inhibition) | C (less than 10% inhibition) | C (less than 10% inhibition) | C (less than 10% inhibition) | C (less than 10% inhibition) | C (less than 10% inhibition) | C (less than 10% inhibition) |  | 
8 | CN(C)C(=O)[C@H](O)[C@@H](O)C(=O)Nc1ccc(-c2ccc3ccccc3c2)cc1 [Compound 82] |  | C (less than 10% inhibition) | B (10-30% inhibition) | C (less than 10% inhibition) | C (less than 10% inhibition) | C (less than 10% inhibition) | B (10-30% inhibition) | B (10-30% inhibition) | A (greater than 30% inhibition) | A (greater than 30% inhibition) |  | 
9 | CN(C)C(=O)[C@H](O)[C@@H](O)C(=O)N(C)c1ccccc1C#Cc1ccccc1 [Compound 103] |  | C (less than 10% inhibition) | C (less than 10% inhibition) | B (10-30% inhibition) | B (10-30% inhibition) | B (10-30% inhibition) | B (10-30% inhibition) | C (less than 10% inhibition) | B (10-30% inhibition) | C (less than 10% inhibition) |  | 
10 | CN(C)C(=O)[C@H](O)[C@@H](O)C(=O)N(C)c1ccc(-c2ccc3ccccc3c2)cc1 [Compound 104] |  | C (less than 10% inhibition) | C (less than 10% inhibition) | C (less than 10% inhibition) | C (less than 10% inhibition) | C (less than 10% inhibition) | C (less than 10% inhibition) | C (less than 10% inhibition) | C (less than 10% inhibition) | B (10-30% inhibition) |  | 
11 | COc1ccc(CNC(=O)[C@H](O)[C@@H](O)C(=O)N2CCC(C(C)=O)(c3ccccc3)CC2)cc1 [Compound 108] |  |  |  |  |  |  |  |  |  |  |  | 250 to 1000
12 | CN(Cc1ccccc1)C(=O)[C@H](O)[C@@H](O)C(=O)NCc1ccc(Cl)cc1 [Compound 110] | 250 to 1000 |  |  |  |  |  |  |  |  |  |  | 
13 | O=C(NCc1ccc(C(F)(F)F)cc1)[C@H](O)[C@@H](O)C(=O)N1CCN(c2cccc(Cl)c2)CC1 [Compound 111] | 250 to 1000 |  |  |  |  |  |  |  |  |  |  | 
14 | CN(CCc1ccccn1)C(=O)[C@H](O)[C@@H](O)C(=O)NCc1ccc(Cl)cc1 [Compound 113] | 250 to 1000 |  |  |  |  |  |  |  |  |  |  | 
15 | C[C@H](NC(=O)[C@H](O)[C@@H](O)C(=O)N1CCc2ccccc2C1)c1ccc(Br)cc1 [Compound 114] | < 250 |  |  |  |  |  |  |  |  |  |  | 
16 | CC(=O)c1ccc(N2CCN(C(=O)[C@H](O)[C@@H](O)C(=O)NCc3ccc(Cl)cc3)CC2)cc1 [Compound 118] | > 5000 |  |  |  |  |  |  |  |  |  |  | 
17 | C[C@H](NC(=O)[C@H](O)[C@@H](O)C(=O)N(C)C1CCN(C)CC1)c1ccc(Br)cc1 [Compound 121] | 1000 to 5000 |  |  |  |  |  |  |  |  |  |  | 
18 | CN1CCC(N(C)C(=O)[C@H](O)[C@@H](O)C(=O)NCc2ccc(C(F)(F)F)cc2)CC1 [Compound 122] | 250 to 1000 |  |  |  |  |  |  |  |  |  |  | 
19 | N[C@@H]1CCN(C(=O)[C@H](O)[C@@H](O)C(=O)NCc2ccc(C(F)(F)F)cc2)C1 [Compound 123] | 1000 to 5000 |  |  |  |  |  |  |  |  |  |  | 
